Assay results from PMC11833175, “Synthesis, characterization, antimicrobial, cytotoxic and carbonic anhydrase inhibition activities of multifunctional pyrazolo-1,2-benzothiazine acetamides” (Beilstein Journal of Organic Chemistry, 2025).
Read-outs that look alike come from different tables or passages of the source. One block for each compound: values may come before it.

Key:
[1] = test system: Candida albicans (ATCC 90027); assay: Microbroth single-dose antimicrobial assay, C. albicans; format: cell-based; settings: ATCC90027, single dose 125 μg/mL, C. albicans ATCC 90027, value (SD)
Description: (§1) Microbroth single dose antimicrobial assays were performed against different pathogens including susceptible Staphylococcus aureus (ATCC 25923), Escherichia coli (ATCC 8739), and Candida albicans (ATCC 90027). Pathogens were treated with 125 μg/mL of tested compounds in duplicate.
(§2) The antimicrobial evaluation of the targeted compounds was carried out against five different pathogens including Staphylococcus aureus (susceptible, ATCC 25923; methicillin-resistant, ATCC BAA-41; multidrug-resistant, ATCC BAA-44), Escherichia coli ATCC 8739, and Candida albicans ATCC 90027. Reference antibiotics and final concentrations used as positive controls in these experiments were kanamycin (susceptible S. aureus, 50 μg), vancomycin (methicillin and multidrug-resistant S. aureus, 25 μg), ampicillin (E. coli, 50 μg), and amphotericin B (C. albicans, 25 μg). The final concentration of the tested compounds was 125 μg/mL for microbroth single-dose assays. Dimethyl sulfoxide was used at a final concentration of 0.1% as negative control. […] American type culture collection (ATCC, Manassas, VA, USA) has provided all microbial strains used in above experiments.
(§3) Antimicrobial Single-dose assay for compounds 7(a-n) against
(§4) S. aureus E. coli C. albicans
(§5) Figure S43: Graph showing results of antimicrobial single-dose microbroth assays of compounds 7a–n, dose of tested compounds = 125 μg/mL, control antibiotic s used: kanamycin = 50 μg/mL (Staphylococcus aureus ATCC 25923), ampicillin = 50 μg/mL (Escherichia coli ATCC 8739), and amphotericin B = 25 μg/mL (Candida albicans ATCC 90027). Dimethylsulfoxide ( DMSO) was used as the negative control at 1.25% […]
(§6) Table S1: Results of single-dose antimicrobial and cytotoxic assays for compounds 7a–n; dosage of tested compounds = 125 μg/mL; antibiotic control dosage (kanamycin = 50 μg/mL (Staphylococcus aureus ATCC 25923), ampicillin = 50 μg/mL (Escherichia coli ATCC 8739), and amphotericin B = 25 μg/mL (Candida albicans ATCC 90027).
(§7) For cytotoxic assays, dosage of tested compounds = 10 μM; dosage of mensacarcin […]
(§8) Percent survival / % Cell viability
(§9) Samples S. aureus E.coli (SD) C. albicans (SD) HCT-116 […]

[2] = test system: Escherichia coli (ATCC 8739); assay: Microbroth single-dose antimicrobial assay, E. coli; format: cell-based; settings: ATCC8739, single dose 125 μg/mL, E. coli ATCC 8739, value (SD)
Description: as §1, §2, §3, §4, §5, §6, §7, §8, §9

[3] = biological target: human carbonic anhydrase CA I (Homo sapiens, UniProt P00915); assay: hCA inhibition, stopped-flow CO2 hydration method, CA I
Sequence of human carbonic anhydrase CA I (P00915 whole entry): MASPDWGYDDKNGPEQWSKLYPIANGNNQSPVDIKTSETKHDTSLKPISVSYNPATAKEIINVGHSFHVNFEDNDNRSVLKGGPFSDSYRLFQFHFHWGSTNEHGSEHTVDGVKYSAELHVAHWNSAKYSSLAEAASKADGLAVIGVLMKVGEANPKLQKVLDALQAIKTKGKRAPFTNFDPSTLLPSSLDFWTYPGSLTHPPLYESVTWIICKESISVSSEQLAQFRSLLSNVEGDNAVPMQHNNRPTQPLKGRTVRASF
Description: (§15) In vitro assessment of all targeted pyrazolobenzothiazine scaffolds for human carbonic anhydrase (hCA) inhibition was performed adopting a stopped-flow CO2 hydration method. The enzyme inhibition assays were carried out for four types of human CA isoforms: CA I, CA II, CA IX, and XII. […] Reason for the selection of these CA isoforms was to develop a comparative relationship for inhibition selectivity between CAs (IX, XII) attributed to tumour/cancer and other CAs (I, II). […] Analyses were carried out in-house using recombinant enzymes as described.

[4] = biological target: human carbonic anhydrase CA XII (Homo sapiens, UniProt O43570); assay: hCA inhibition, stopped-flow CO2 hydration method, CA XII; settings: mean from three assays, errors ±5–10%
Sequence of human carbonic anhydrase CA XII (O43570 25-354): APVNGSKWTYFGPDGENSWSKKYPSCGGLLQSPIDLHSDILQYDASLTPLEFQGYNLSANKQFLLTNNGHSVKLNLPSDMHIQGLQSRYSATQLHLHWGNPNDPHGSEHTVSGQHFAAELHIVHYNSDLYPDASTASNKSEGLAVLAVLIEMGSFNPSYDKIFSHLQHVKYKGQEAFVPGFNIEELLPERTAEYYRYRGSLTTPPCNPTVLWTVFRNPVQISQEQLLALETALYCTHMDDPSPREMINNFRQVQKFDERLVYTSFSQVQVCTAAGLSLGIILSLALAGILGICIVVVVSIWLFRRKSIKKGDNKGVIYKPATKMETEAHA
Description: as §15

[5] = biological target: human carbonic anhydrase CA II (Homo sapiens, UniProt P00918); assay: hCA inhibition, stopped-flow CO2 hydration method, CA II; settings: mean from three assays, errors ±5–10%
Description: as §15

[6] = test system: Staphylococcus aureus (ATCC 25923); assay: Microbroth single-dose antimicrobial assay, susceptible S. aureus; format: cell-based; settings: Staphylococcus aureus, ATCC25923; single dose 125 μg/mL; S. aureus ATCC 25923; value (SD)
Description: as §1, §2, §3, §4, §5, §6, §7, §8, §9

[7] = Single-dose MTT cell viability assay; format: cell-based, human; settings: human, HCT-116 cells (ATCC CCL-247), 48 h, 0.1% DMSO control = 100%, value (SD)
Description: (§10) Single-dose MTT assays were performed for compounds 7a–n against the human colon cancer mammalian cell line (HCT-116, ATCC CCL-247) for evaluating their inhibition of mammalian cell metabolism. Solutions of the tested compounds were prepared in DMSO and cancer cells were treated with 10 μM doses of compounds using the apoptosis inducing standard mensacarcin (10 μM) as a positive control.
(§11) Single-dose MTT assays were performed for compounds 7a–n with the human colon cancer mammalian cell line (HCT-116, ATCC CCL-247) for evaluating the compounds’ inhibitory effects on cell viability. Stock solutions of compounds were prepared in DMSO and cancer cells were treated with 10 μM doses of each compound and mensacarcin (10 μM) as a positive control. MTT in 1X PBS was added for a final concentration of 0.5 mg/mL 48 hours post compound addition to each well. Post incubation at 37 °C was carried out for 2 h. After the removal of the growth media, purple formazan metabolic product was dissolved in DMSO. A Biotek Synergy reader (96-well plate) was used to take absorbance of all samples at 550 nm. Cell viability was calculated as the ability of the metabolically active cells to reduce tetrazolium salt MTT [3-(4,5-dimethylthiazolyl-2)-2,5-diphenyltetrazolium bromide]. Control metabolic activity shown by cells treated with 0.1% DMSO was set to 100% cell growth. […]
as §7, §8, §9
(§12) HCT-116 (Human Colorn cancer cell line) Single -dose assay for […]
(§13) Figure S44: Graph showing cell viability of compounds 7a–n against human colon carcinoma cell line (HCT-116, ATCC CCL-247), dose of tested compounds = 10 μM, dose of positive control (mensacarcin) = 10 μM.

[8] = biological target: human carbonic anhydrase CA IX (Homo sapiens, UniProt Q16790); assay: hCA inhibition, stopped-flow CO2 hydration method, CA IX; settings: mean from three assays, errors ±5–10%
Description: as §15

[9] = test system: human colon cancer cell line HCT-116 (ATCC CCL-247); assay: Single-dose MTT cell viability assay; format: cell-based; settings: 10 μM
Description: as §10, §11, §7, §8, §9, §12, §13

[10] = test system: susceptible S. aureus (ATCC 25923); assay: Microbroth dilution assay (MIC90), susceptible S. aureus; format: cell-based, Staphylococcus aureus; settings: 90% growth inhibition
Description: (§14) Microbroth dilution assays were performed for the determination of MIC (minimum inhibitory concentration, MIC90) values for compounds 7b and 7h against three different strains of Staphylococcus aureus: susceptible (ATCC 25923), methicillin-resistant (ATCC BAA-41), and multidrug-resistant (ATCC BAA-44).
as §2

[11] = test system: multidrug-resistant S. aureus (ATCC BAA-44); assay: Microbroth dilution assay (MIC90), multidrug-resistant S. aureus; format: cell-based, Staphylococcus aureus; settings: Staphylococcus aureus, ATCCBAA44, read-out: MIC90 MDRSA
Description: as §14, §2

[12] = test system: methicillin-resistant S. aureus (ATCC BAA-41); assay: Microbroth dilution assay (MIC90), methicillin-resistant S. aureus; format: cell-based, Staphylococcus aureus; settings: Staphylococcus aureus, ATCC BAA-41 / MRSA, read-out: MIC90 MRSA
Description: as §14, §2

[13] = read-out: Ki for targeted CAs, I, mean from three assays, errors ±5–10%
[14] = read-out: Ki for targeted CAs, XII
[15] = read-out: Ki for targeted CAs, II
[16] = read-out: Ki for targeted CAs, IX

SMILES: COc1ccc(NC(=O)COc2nn(CC(=O)Nc3ccc(OC)cc3)c3c2N(C)S(=O)(=O)c2ccccc2-3)cc1 [Compound 7j]
percent survival at 125 µg/mL [1]: 99.5%
percent survival at 125 µg/mL [2]: > 100%
Ki [3]: > 100 µM
Ki ([4]; Ki for targeted CAs, XII): > 100 µM
Ki ([5]; Ki for targeted CAs, II): > 100 µM
percent survival of S. aureus at 125 µg/mL [6]: > 100%
viability at 48 h, 10 µM [7]: > 100%
Ki ([8]; Ki for targeted CAs, IX): > 100 µM

SMILES: Cc1cccc(NC(=O)COc2nn(CC(=O)Nc3cccc(C)c3C)c3c2N(C)S(=O)(=O)c2ccccc2-3)c1C [Compound 7k]
percent survival at 125 µg/mL [1]: > 100%
percent survival at 125 µg/mL [2]: 94.2%
Ki [3]: > 100 µM
Ki ([4]; Ki for targeted CAs, XII): > 100 µM
Ki ([5]; Ki for targeted CAs, II): > 100 µM
percent survival of S. aureus at 125 µg/mL [6]: > 100%
viability at 48 h, 10 µM [7]: 90.7%
Ki ([8]; Ki for targeted CAs, IX): > 100 µM

SMILES: CN[C@H](CC(C)C)C(=O)N[C@H]1C(=O)N[C@@H](CC(N)=O)C(=O)N[C@H]2C(=O)N[C@H]3C(=O)N[C@H](C(=O)N[C@H](C(=O)O)c4cc(O)cc(O)c4-c4cc3ccc4O)[C@H](O)c3ccc(c(Cl)c3)Oc3cc2cc(c3O[C@@H]2O[C@H](CO)[C@@H](O)[C@H](O)[C@H]2O[C@H]2C[C@](C)(N)[C@H](O)[C@H](C)O2)Oc2ccc(cc2Cl)[C@H]1O [vancomycin, reference compound]
MIC90 [11]: < 1 µg/mL
MIC90 [12]: < 1 µg/mL

More lines, main results first:

Ki [3, 13]: > 100 µM
Ki [4, 14]: > 100 µM
Ki [5, 15]: > 100 µM
Ki [8, 16]: > 100 µM
SMILES: Cc1ccccc1NC(=O)COc1nn(CC(=O)Nc2ccccc2C)c2c1N(C)S(=O)(=O)c1ccccc1-2 [Compound 7l]
effect on HCT-116 cell viability (in words) [9]: inhibited cell viability

Ki [3, 13]: > 100 µM
Ki [4, 14]: > 100 µM
Ki [5, 15]: > 100 µM
Ki [8, 16]: > 100 µM
SMILES: Cc1ccc(NC(=O)COc2nn(CC(=O)Nc3ccc(C)cc3)c3c2N(C)S(=O)(=O)c2ccccc2-3)cc1 [Compound 7m]

Ki [3, 13]: > 100 µM
Ki [4, 14]: > 100 µM
Ki [5, 15]: > 100 µM
Ki [8, 16]: > 100 µM
SMILES: CN1c2c(OCC(=O)NC3CCCCC3)nn(CC(=O)NC3CCCCC3)c2-c2ccccc2S1(=O)=O [Compound 7n]

MIC90 SA [10]: <1 µg/mL
SMILES: NC[C@H]1O[C@H](O[C@H]2[C@H](O)[C@@H](O[C@H]3O[C@H](CO)[C@@H](O)[C@H](N)[C@H]3O)[C@H](N)C[C@@H]2N)[C@H](O)[C@@H](O)[C@@H]1O [Kanamycin, kanamycin, reference compound]
